Reference: patent US10966940B2, “Methods for the treatment of tinnitus induced by cochlear excitotoxicity” (INSTITUT NATIONAL DE LA SANTE ET DE LA RECHERCHE MEDICALE …, priority 2004, dated 2021)

Experiments:
Long-Evans rats = assay: Behavioral (active avoidance) model of tinnitus induced by cochlear excitotoxicity provoked by acute acoustic trauma; format: in vivo, rat
Method: We developed and tested an animal model of tinnitus induced by cochlear excitotoxicity, which was provoked by acoustic trauma. […] These considerations mean for example that more animals are required to obtain a sufficient number of tinnitus cases for study and to permit observation of tinnitus over time. As it is unclear whether a case of tinnitus induced by cochlear excitotoxicity is to last or not, it is advisable to conduct studies in its early stages.
The experiments were performed in two stages. First, the hearing loss following acute acoustic trauma as well as the incidence of tinnitus were evaluated with no therapeutic compound administered.
During experiments, animals were caged individually at a constant temperature with a day/night cycle of 12/12 hours. All behavioral tests were performed in the dark phase, the usual period of animal activity, for every animal individually at about the same time each day. Outside the experiments, the animals received water and nutrition ad libidum. A total of 60 animals were used: 30 for the first stage (of which 25 were tested by behavioral techniques and 5 by electrophysiology), and 30 for the second stage with 10 for each pharmaceutical compound tested.
Acoustic trauma was induced by a continuous pure tone of 6 kHz generated by a waveform synthesizer (Hewlett-Packard 8904A). The animals were anesthetized and exposed to 130 dB sound pressure level (SPL) for 20 minutes, which was routed through a programmable attenuator and presented to the ears in free field via a JBL 075 earphone positioned 10 cm in front of the animal's head. Sound level was measured using a calibrated Bruel and Kjaer microphone (4314) and a Bruel and Kjaer calibrating amplifier (2606).
Behavioral conditioning and testing Animals were conditioned to achieve active avoidance (Guitton et al., J. of Neuroscience 23 (9): 3944-3952 (2003)). Behavioral testing consisted of the performance of a task whenever a sound was produced in a conditioning box with an electrical floor and a climbing pole. […] The unconditional stimulus consisted of an electric shock to the feet of the animals (3.7 mA) during maximally 30 seconds. Interstimulus intervals were 1 second. The electric shocks were stopped by the investigator once the animal correctly climbed onto the pole. Intervals between trials were at least one minute long.
The score was defined as the animal's performance, measured by the number of cases when it climbed correctly onto the pole in response to the sound. As soon as an animal had reached a score of at least 80% in three consecutive sessions, it was considered successfully conditioned and employed in the experiments.
Experiments were conducted daily with measurements of both score and false positive responses during one session of 10 minutes with 10 trials in total. False positive responses were climbings onto the pole between trials without any acoustic stimulation, i.e. during periods of silence. They can be interpreted as the perception of tinnitus, as the animals are performing the task of climbing onto the pole as if they were hearing the stimulus (Guitton et al., J. of Neuroscience 23 (9): 3944-3952 (2003)). Sound stimuli were randomized, and electrical footshocks were only delivered if the animals didn't climb onto the pole in response to sound.
Animals were anaesthetized with a single-dose i.p. injection of 0.3 ml/kg of pentobarbital at 6% (Sanofi) and operated under aseptic conditions right after the first behavioral testing (day 0). The two bullae were opened through a posterior auricular surgical procedure (dorsal approach). After exposure of the two cochleas, gelfoam (Gelita tampon, B. Braun Medical AG) impregnated with 2.5 μl artificial perilymph containing the pharmaceutical compounds was placed on the each of the round windows of the two cochleas. The concentration of all three pharmaceutical compounds used was 50 μM.

guinea pigs [1] = assay: ESA noise trauma model: ensemble spontaneous activity of the cochlear nerve; format: in vivo, guinea pig; details: for regular ESA peak centered at 900 Hz to 1 kHz: treated ear; for ESA spectral peak centered at 200 to 250 Hz (tinnitus): 50 microM in 0.7% hyaluronic acid gel, round window
Method: We developed therefore an animal model with guinea pigs that were exposed to intensive noise, producing acute acoustic trauma, and whose ESA was recorded to control for the absence or presence of tinnitus (“ESA noise trauma model”). The possibility to record tinnitus by electrophysiological tests provides an excellent tool for evaluating the therapeutic benefits of pharmaceutical compounds in suppressing tinnitus. The development of the ESA noise trauma model required extensive experimentation with different noise trauma protocols as well as the development and testing of specific measurement tools for extended observation periods in vivo.
The experiment was performed in two stages. First, guinea pigs were exposed to intense noise stimulation in order to provoke acute acoustic trauma (day 0). Auditory thresholds and ESA were determined and then followed further by repeated electrophysiological measurements. If persisting tinnitus could still be detected after at least 5 days, an NMDA receptor antagonists (ketamine or 7-CK) was applied in a hyaluronic acid formulation onto the round window membrane of the cochlea. […] After treatment with the NMDA receptor antagonists, electrophysiological measurements of hearing thresholds and ESA continued for at least 10 days. The primary endpoints of the study were to test whether the pharmacological treatment could suppress tinnitus even after its onset, and whether such treatment effect was persisting or not. As a control, contralateral ears were exposed to the same noise exposure and followed by electrophysiology.
Experiments were performed on adult pigmented guinea pigs (250 to 300 grams at study begin). During experiments, animals were caged individually. Outside the experiments, the animals received water and nutrition ad libidum. […] In two contralateral left ears, tinnitus was observed, so that they could be used as a control group.
Acoustic trauma was induced by a continuous pure tone of 6 kHz generated by a waveform synthesizer (Hewlett-Packard 8904A). […] Sound level was measured using a calibrated Bruel and Kjaer microphone (4314) and a Bruel and Kjaer calibrating amplifier (2606).
A teflon-coated platinum electrode implanted onto the round window membranes of both cochleas (with reference electrodes placed in a neck muscle) measured the ESA and the compound action potential of the auditory nerve (CAP). […]
The ESA was recorded from the platinum wire placed in the round window niche. […]
The ESA was measured just before acute acoustic trauma and 20 minutes following noise exposure on day 0, and then repeatedly for at least 10 days as described above. […] Subsequently, ESA was measured again on the first day after treatment (T+1) as well as 10 days after treatment (T+10). […]

guinea pigs [2] = assay: CAP audiogram (hearing threshold) in ESA noise trauma model; format: in vivo, guinea pig; details: local administration onto round window membrane
Method: A teflon-coated platinum electrode implanted onto the round window membranes of both cochleas (with reference electrodes placed in a neck muscle) measured the ESA and the compound action potential of the auditory nerve (CAP). The surgery was performed using a posterior auricular surgical procedure (dorsal approach) prior to noise exposure. The reference electrode and the round window electrode were soldered to a plug fixed on the skull using dental cement (Unifast Trad, GC Corporation).
The CAP was measured concomitantly with ESA measurements using the same electrode. Tone bursts (with a duration of 9 ms and a rise/fall cycle of 1 ms, 10 per second) generated by an arbitrary function generator (LeCroy Corp., model 9100R) were applied to the animal's ear in free filed via a JBL 075 earphone. CAP audiograms were obtained by varying burst levels from 0 to 100 dB SPL in steps of 5 dB at the frequencies 2, 4, 6, 8, 10, 12, 16, 20, and 26 kHz. Auditory nerve responses were amplified (Tektronic TM 503; gain 2000), filtered (3.5 kHz low pass) and averaged on a PC (Dimension Pentium, Dell). CAP amplitudes were measured peak-to-peak between the first negative depression N1 and the subsequent positive wave P1. The CAP threshold was defined as the sound intensity (in dB SPL) needed to elicit a measurable response (greater than 5 μV). […]

[3] = system: PCP binding site of the NMDA receptor; details: higher affinity than (R)-ketamine; cited from earlier work
NMDA receptors = details: local administration; cited from earlier work
[4] = system: salicylate-induced tinnitus; details: cited from earlier work; for number of false positives after delivery to the cochleas via the round window membrane: salicylate-treated animals; for false positive responses (jumps in absence of sound) induced by the substance: tinnitus induction
tinnitus = details: systemic administration; cited from earlier work
[5] = in vivo; cited from earlier work
[6] = system: NR1 subunit of the cochlear NMDA receptor; details: 350 mg/kg i.p. twice over 24 hours; sample after 24 hours
Method: The salicylate dose used is known to induce tinnitus (Guitton et al., J. of Neuroscience 23 (9): 3944-3952 (2003)). Another group of 3 animals served as control and was injected i.p. with a NaCl 0.9% solution of the same volume as salicylate treated animals. Samples were obtained after 24 hours in the salicylate and control groups and 24 hours respectively 5 days post incident for the acoustic trauma group.
Tissues were harvested in cold PBS and homogenized in sample buffer, and the lysates were centrifuged to remove detergent-insoluble material and separated on a 10% SDS-PAGE in Tris/Tricine. After gel electrophoresis, proteins were transferred electrophoretically to nitrocellulose membranes (PVDF transfer membrane Hybond-P, Amersham Pharmacia Biotech, USA). Blots were first incubated with a primary anti-antibody against the NMDA NR1 receptor subunit (1/1000 dilution; rabbit polyclonal antibody, Chemicon international, USA), and with a primary antibody anti-actin (1/50000 dilution, mouse monoclonal anti-β-actin, Sigma, USA) overnight at 4° C. To verify that the molecular weight of the NR1 subunit is identical in both brain and cochlea, immunoblots from the brain of control animals were performed. […] Image scanning of Western blots was then performed for semi-quantification of expression levels of NR1 and actin proteins using Biorad Fluor-S software (Quantity one).

[7] = system: sensory outer hair cells (OHC) and inner hair cell (IHC) synaptic complex; details: 350 mg/kg i.p. twice a day for 2 days
Method: After decapitation of the rats under deep anaesthesia (pentobarbital 50 mg/kg), the cochleas were removed from the temporal bone and perfused with a fixative solution of 2.5% glutaraldehyde in 0.1 M phosphate-buffered saline (PBS), pH 7.3. They were then processed either for scanning (SEM) or transmission electron (TEM) microscopy. For SEM, the otic capsule was dissected out and the stria vascularis, tectorial, and Reissner's membranes were removed. After rinsing in PBS (pH 7.3) the samples were dehydrated in a graded series of ethanol (30-100%), critical point-dried in CO2, coated with gold palladium, and examined using a Hitachi S4000 microscope. For TEM, the cochleas were postfixed in a 1% aqueous solution of osmium tetroxide for 2 hours, rinsed in phosphate buffer, dehydrated in a graded series of ethanol (30-100%), and embedded in Epon resin. Transverse ultrathin sections of the organ of Corti were taken from the apical half of the cochlea. The sections, mounted on formvar-coated or mesh grids, were stained with uranyl acetate, and lead citrate and examined using a Hitachi 7100 microscope.

CN[C@@]1(c2ccccc2Cl)CCCCC1=O (stereo in doubt) [S-(+)-Ketamine, 2-(2-chlorophenyl)-2-(methylamino)-cyclohexanone]
number of false positives (Long-Evans rats; group 1 (no increase), days 0 and 1): 0.22±0.22 false positives
number of false positives (Long-Evans rats; group 2 (reversible increase), day 0): 0.2±0.2 false positives
number of false positives (Long-Evans rats; group 2 (reversible increase), day 1): 5±0.48 false positives
recovery of behavioral score after trauma, in words (Long-Evans rats; local administration to round window membrane, 50 μM): improvement was slower than in untreated animals
effect on tinnitus (false positives), in words (Long-Evans rats; local administration to round window membrane, 50 μM, before acoustic trauma): only cases of transient tinnitus could be observed
number of animals with no increase in false positives (group 1) (Long-Evans rats; of 10 animals per compound): 5
number of animals with only reversible increase in false positives (group 2, transient tinnitus) (Long-Evans rats; of 10 animals per compound): 5
average score at stabilization (Long-Evans rats; rat, in vivo): 89%±2.3
regular ESA peak centered at 900 Hz to 1 kHz (guinea pigs [1]; 10 days after treatment (T+10)): fully recovered
regular ESA peak centered at 900 Hz to 1 kHz (guinea pigs [1]; day T1 after treatment): still appeared, yet diminished
ESA spectral peak centered at 200 to 250 Hz (tinnitus) (guinea pigs [1]; day T1 after treatment, given after onset of persisting tinnitus): completely disappeared
ESA spectral peak centered at 200 to 250 Hz (tinnitus) (guinea pigs [1]; day T10 after treatment): remained absent
permanent threshold shift (PTS, hearing loss) after treatment (guinea pigs [2]): not changed
affinity relative to (R)-ketamine [3]: 3-4 fold

N[C@H](CCCP(=O)(O)O)C(=O)O [D-AP5, D-2-amino-5-phosphonopentanoic acid]
functional recovery and regrowth of auditory dendrites (NMDA receptors): delayed the functional recovery and the regrowth of auditory dendrites

C[C@]12N[C@H](Cc3ccccc31)c1ccccc12 [MK-801, dizocilpine]
number of false positives after delivery to the cochleas via the round window membrane [4]: decreased significantly

C1C2CC3CC1CC(C2)C3 [adamantane]
tinnitus during treatment (tinnitus): reduction in tinnitus during treatment

CCN(CC)CCn1c(=O)c(Cc2ccc(OC)cc2)nc2ccccc21 [caroverine]
intracochlear concentration, local versus systemic administration [5]: higher intracochlear concentrations

CC1CCCCC1(c1cccs1)N1CCCCC1 (stereo not drawn) [gacyclidine]
number of false positives after delivery to the cochleas via the round window membrane [4]: decreased significantly

Cc1cccc(Nc2ccccc2C(=O)O)c1C [mefenamate]
false positive responses (jumps in absence of sound) induced by the substance [4]: increased the number of false positive responses

O=C([O-])c1ccccc1O.[Na+] [salicylate, sodium salicylate]
NR1 NMDA receptor subunit expression, higher than control animals [6]: 4%
false positive responses (jumps in absence of sound) induced by the substance [4]: significant increase
stereocilia of OHC and IHC ([7]; SEM): intact
ultrastructure of the IHC synaptic complex ([7]; TEM): No ultrastructural abnormalities
